{
  "source": "patent US8173694B2",
  "about": "“Therapeutic agent” (Pentraxin Therapeutics Limited, priority 2001, dated 2012)",
  "key": {"SAP in whole human serum": {"target": "T1, SAP in whole human serum (Homo sapiens, UniProt P02743)", "T1 construct": "Aliquots of a single pool of whole normal human serum, containing SAP and CRP; from tissue; host or cells: pooled whole normal human serum", "T1 sequence (P02743 20-223)": "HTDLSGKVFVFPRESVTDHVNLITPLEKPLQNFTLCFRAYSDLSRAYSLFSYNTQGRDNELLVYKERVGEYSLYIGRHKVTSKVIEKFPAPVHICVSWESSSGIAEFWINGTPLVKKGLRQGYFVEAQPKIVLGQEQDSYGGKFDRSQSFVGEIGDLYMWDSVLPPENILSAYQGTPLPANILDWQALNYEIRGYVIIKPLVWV", "experiment": "Size exclusion chromatography of whole human serum mixed with drug: SAP", "format": "binding", "description": "Aliquots of a single pool of whole normal human serum, containing SAP and CRP, were mixed with (R)-1-[6-(R)-2-Carboxy-pyrrolidin-1-yl]-6-oxo-hexanoyl]pyrrolidine-2-carboxylic acid at the molar ratios shown, with respect to pentraxin protomer, and analysed by size exclusion chromatography precisely as described previously (14). The mixtures and the column eluants contained either no calcium ions or 2 mM calcium, and the concentrations of drug appropriate to maintain the molar ratios indicated above. SAP in whole serum is a stable soluble pentameric assembly of protomers, stabilised by the presence of the normal high concentration of serum albumin. However as SAP is separated from serum albumin during gel filtration with a calcium containing eluant, the SAP autoaggregates and elutes entirely as high molecular weight polymers in the void volume of the column. This is because, in the absence of a specific ligand to which it can bind, isolated human SAP is insoluble in the presence of calcium (14). However in the absence of calcium, where no ligand binding or autoaggregation can occur, SAP forms stable decamers, providing an excellent marker for the elution volume of this molecular assembly (14). Human CRP is a stable pentamer either in the presence or absence of calcium and thus provides a robust marker for the elution position of that molecular form (14)."}, "SAP": {"target": "SAP (Homo sapiens, UniProt P02743)", "sequence (P02743 20-223)": "as above", "experiment": "Circulating human SAP in human SAP transgenic mice, drug in drinking water", "format": "in vivo, mouse", "set-up": "on circulating human SAP values in human SAP transgenic mice; from tissue; host or cells: plasma of human SAP transgenic mice", "settings": "drug in the drinking water", "description": "(§1) Clearance from the amyloid deposits, catabolism and excretion of the human SAP tracer were monitored globally by whole body counting of the mice (left), and the total amount of mouse SAP in the amyloidotic organs was determined after killing the animals on day 5 (right). […] Immediately after the 15 minute bleed, two groups, one that had received human SAP and the other mouse SAP, received a single intraperitoneal injection of 5 mg of (R)-1-[6-(R)-2-Carboxy-pyrrolidin-1-yl]-6-oxo-hexanoyl]pyrrolidine-2-carboxylic acid (desapin). Tracer remaining in the circulation is expressed as the mean (SD) percentage of the amount at the 15 minute time point for each group. […] In one of each of the pairs of groups receiving mouse or human SAP respectively, the tracer had been mixed with (R)-1-[6-(R)-2-Carboxy-pyrrolidin-1-yl]-6-oxo-hexanoyl]pyrrolidine-2-carboxylic acid (desapin) and incubated in vitro before injection into the animals. Tracer remaining in the circulation is expressed as mean (SD) total radioactivity per gram of blood in each group. Bottom panel: effect of administration of (R)-1-[6-(R)-2-Carboxy-pyrrolidin-1-yl]-6-oxo-hexanoyl]pyrrolidine-2-carboxylic acid (desapin) in the drinking water at the concentrations shown, on circulating human SAP values in human SAP transgenic mice. Mice of approximately 20 g body weight consume about 3 ml water per day. […]"}, "123I-SAP": {"target": "123I-SAP (Homo sapiens, UniProt P02743)", "sequence (P02743 20-223)": "as above", "experiment": "Quantitative whole body 123I-SAP scintigraphy in patients during drug infusion", "format": "in vivo", "excerpt": "This patient, with a modest load of AL amyloid in the spleen and kidneys, had notable blood pool background of tracer in the heart and circulation before administration of the drug.\nThis patient, with modest load of AL amyloid in the spleen and kidneys, had notable blood pool background of tracer in the heart and circulation before administration of the drug.\nDirect evidence for depletion of SAP from amyloid in the organs and for the mechanism of action of (R)-1-[6-(R)-2-Carboxy-pyrrolidin-1-yl]-6-oxo-hexanoyl]pyrrolidine-2-carboxylic acid was obtained by quantitative whole body scintigraphy using ^123I-SAP as a tracer. Each patient received a standard dose of ^123I-SAP 24 h before the (R)-1-[6-(R)-2-Carboxy-pyrrolidin-1-yl]-6-oxo-hexanoyl]pyrrolidine-2-carboxylic acid infusion started and was scanned immediately before treatment to provide a baseline image and values for localisation of tracer to the amyloid deposits. They were then scanned at intervals thereafter, up to the end of the 48 h infusion. (R)-1-[6-(R)-2-Carboxy-pyrrolidin-1-yl]-6-oxo-hexanoyl]pyrrolidine-2-carboxylic acid caused dramatic clearance of tracer from the plasma, exactly paralleling both in the scintigraphic images and in counting of blood samples, the SAP depletion monitored by immunoassay of the serum. […] At the same time there was a marked decrease in the retention of tracer in amyloid deposits elsewhere, exemplified by the spleen and kidneys, in contrast to the usual situation in control untreated amyloidosis patients (Table 2; FIG. 6).\nAll patients had systemic AL amyloidosis and received a standard intravenous tracer dose of ^123I-SAP at time zero. After whole body quantitative scintigraphic imaging at 24 h, uptake in liver and spleen were taken as 100% for each individual. Intravenous infusion of the drug (R)-1-[6-(R)-2-Carboxy-pyrrolidin-1-yl]-6-oxo-hexanoyl]pyrrolidine-2-carboxylic acid was then started and scintigraphy with organ counting was repeated at 48 h. The controls received no treatment. Significance of differences between the two groups was sought by t-test."}, "radiolabelled human SAP": {"target": "T2, radiolabelled human SAP (Homo sapiens, UniProt P02743)", "T2 construct": "intravenous injection of ^125I-labelled pure human or mouse SAP at time zero", "T2 sequence (P02743 20-223)": "as above", "experiment": "Plasma clearance of radiolabelled human SAP tracer in mice", "format": "in vivo, mouse", "description": "as §1"}, "mouse SAP": {"target": "T3, mouse SAP (Mus musculus, UniProt P12246)", "T3 construct": "all the endogenous mouse SAP in the deposits; from tissue; host or cells: mice in vivo: amyloidotic organs, or plasma of normal wild type mice", "T3 sequence (P12246 21-224)": "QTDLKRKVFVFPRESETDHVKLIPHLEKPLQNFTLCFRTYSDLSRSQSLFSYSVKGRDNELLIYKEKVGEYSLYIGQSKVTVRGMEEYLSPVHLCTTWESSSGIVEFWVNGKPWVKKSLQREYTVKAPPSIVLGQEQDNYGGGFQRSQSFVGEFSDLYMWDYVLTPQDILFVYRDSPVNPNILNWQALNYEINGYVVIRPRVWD", "experiment": "Endogenous mouse SAP in amyloid deposits of mice with AA amyloidosis", "format": "in vivo", "description": "as §1"}, "[1]": {"settings": "drug:protein 100:1, calcium present"}, "[2]": {"settings": "24 h after starting infusion, second patient"}, "[3]": {"settings": "48 h after starting infusion, second patient"}, "[4]": {"settings": "48 h after tracer injection (drug infusion started at 24 h), 24 h uptake = 100%, 7 patients"}},
  "note": "“Also recorded” adds a separate entry of the source.",
  "data": [
    {"smiles": "O=C(O)[C@H]1CCCN1C(=O)CCCCC(=O)N1CCC[C@@H]1C(=O)O", "note": "[(R)-1-[6-(R)-2-Carboxy-pyrrolidin-1-yl]-6-oxo-hexanoyl]pyrrolidine-2-carboxylic acid]", "values": [
      {"measurement": "Molecular assembly", "setting": "SAP in whole human serum; drug:protein 1:1, calcium present", "result": "some of the SAP was solubilised as stable drug-decamer complexes; also recorded: High MW"},
      {"measurement": "Molecular assembly", "setting": "SAP in whole human serum; drug:protein 10:1, calcium present", "result": "High MW; also recorded: Decamer"},
      {"measurement": "Elution volume", "setting": "SAP in whole human serum; [1]", "result": "10.0 to 10.5", "unit": "mL"},
      {"measurement": "Molecular assembly", "setting": "SAP in whole human serum; [1]", "result": "all the SAP was in this form; also recorded: Decamer"},
      {"measurement": "Circulating human SAP", "setting": "SAP", "result": "rapidly depleted"},
      {"measurement": "Blood pool background of 123I-SAP tracer", "setting": "123I-SAP; 6 h after starting infusion, first patient", "result": "completely absent"},
      {"measurement": "Kidney counts, of time 0", "setting": "123I-SAP; [2]", "result": 77, "unit": "%"},
      {"measurement": "Spleen counts, of time 0", "setting": "123I-SAP; [2]", "result": 85, "unit": "%"},
      {"measurement": "Blood pool background of 123I-SAP tracer", "setting": "123I-SAP; 24 h and 48 h after starting infusion, second patient", "result": "completely absent"},
      {"measurement": "Kidney counts, of time 0", "setting": "123I-SAP; [3]", "result": 50, "unit": "%"},
      {"measurement": "Spleen counts, of time 0", "setting": "123I-SAP; [3]", "result": 54, "unit": "%"},
      {"measurement": "123I-SAP retention [mean (SD)%], Liver", "setting": "123I-SAP; [4]", "result": "125 (20) %"},
      {"measurement": "123I-SAP retention [mean (SD)%], Spleen", "setting": "123I-SAP; [4]", "result": "54 (18) %"},
      {"measurement": "Blood pool signal of 123I-SAP tracer", "setting": "123I-SAP; by 6 h after starting treatment and persisting thereafter", "result": "virtually disappeared"},
      {"measurement": "Plasma clearance of radiolabelled human SAP tracer", "setting": "radiolabelled human SAP; single intraperitoneal injection of 5 mg", "result": "accelerated"},
      {"measurement": "Clearance of radiolabelled human SAP preincubated with drug in vitro", "setting": "radiolabelled human SAP; tracer preincubated with drug before intravenous injection into normal mice", "result": "extremely rapidly cleared"},
      {"measurement": "Removal of endogenous mouse SAP from amyloid deposits", "setting": "mouse SAP; 15 mg/kg/day, continuous infusion", "result": "removed all the mouse SAP"},
      {"measurement": "Dose required to dissociate any endogenous mouse SAP significantly", "setting": "mouse SAP; continuous infusion for 5 days via osmotic pump", "result": 1.5, "unit": "mg/kg/day"}
    ]}
  ]
}
